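Method: 48-hour compound exposure of cells in 96-well plates, five concentrations, linear interpolation of endpoints. The concentration for 50% growth inhibition is given as GI50. Definition used: TGI = concentration required for complete inhibition of growth.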
Columns and labels:
Experiment in all cases: DTP human tumour cell line panel, 48 h
BT-549 breast = system: BT-549 breast
HOP-92 NSCLC = system: HOP-92 NSCLC
MOLT-4 leukemia = system: MOLT-4 leukemia
OVCAR-8 ovarian = system: OVCAR-8 ovarian
SW-620 colon = system: SW-620 colon
HT29 colon = system: HT29 colon
SNB-75 CNS = system: SNB-75 CNS
MCF7 breast = system: MCF7 breast
K-562 leukemia = system: K-562 leukemia
HCT-15 colon = system: HCT-15 colon
UO-31 renal = system: UO-31 renal
NCI/ADR-RES ovarian = system: NCI/ADR-RES ovarian
HOP-62 NSCLC = system: HOP-62 NSCLC
SF-268 CNS = system: SF-268 CNS
SK-OV-3 ovarian = system: SK-OV-3 ovarian
U251 CNS = system: U251 CNS
OVCAR-4 ovarian = system: OVCAR-4 ovarian
SNB-19 CNS = system: SNB-19 CNS
RXF 393 renal = system: RXF 393 renal
IGROV1 ovarian = system: IGROV1 ovarian
MALME-3M melanoma = system: MALME-3M melanoma
RPMI-8226 leukemia = system: RPMI-8226 leukemia
NCI-H460 lung = system: NCI-H460 lung
SF-295 CNS = system: SF-295 CNS
SN12C renal = system: SN12C renal
CCRF-CEM leukemia = system: CCRF-CEM leukemia
TK-10 renal = system: TK-10 renal
A549 NSCLC = system: A549 NSCLC
ACHN renal = system: ACHN renal
MDA-MB-435 = system: MDA-MB-435
PC-3 prostate = system: PC-3 prostate
T-47D breast = system: T-47D breast
KM12 colon = system: KM12 colon
EKVX NSCLC = system: EKVX NSCLC
OVCAR-5 ovarian = system: OVCAR-5 ovarian
NCI-H522 lung = system: NCI-H522 lung
MDA-MB-231 breast = system: MDA-MB-231 breast
NCI-H23 lung = system: NCI-H23 lung
HL-60(TB) leukemia = system: HL-60(TB) leukemia
A498 renal = system: A498 renal
NCI-H226 lung = system: NCI-H226 lung
HCC-2998 colon = system: HCC-2998 colon
UACC-257 melanoma = system: UACC-257 melanoma
COLO 205 colon = system: COLO 205 colon
MDA-N = system: MDA-N
DU-145 prostate = system: DU-145 prostate
SF-539 CNS = system: SF-539 CNS
LOX IMVI melanoma = system: LOX IMVI melanoma
OVCAR-3 ovarian = system: OVCAR-3 ovarian
SK-MEL-5 melanoma = system: SK-MEL-5 melanoma
HS 578T breast = system: HS 578T breast
SK-MEL-2 melanoma = system: SK-MEL-2 melanoma
HCT-116 colon = system: HCT-116 colon
786-0 renal = system: 786-0 renal
M14 melanoma = system: M14 melanoma
SK-MEL-28 melanoma = system: SK-MEL-28 melanoma
CAKI-1 renal = system: CAKI-1 renal
UACC-62 melanoma = system: UACC-62 melanoma
SR leukemia = system: SR leukemia

Structure (SMILES): C[C@H]1CCC/C=C/[C@@H]2C[C@H](O)C[C@H]2[C@H](O)[C@@H](S(=O)CCN(C)C)CC(=O)O1 (some centres not stated)
- GI50 (BT-549 breast): 0.202 µM
- GI50 (HOP-92 NSCLC): 4.99 µM
- TGI (HOP-92 NSCLC): > 100 µM
- GI50 (MOLT-4 leukemia): 0.349 µM
- GI50 (OVCAR-8 ovarian): 0.0966 µM
- GI50 (SW-620 colon): 0.277 µM
- GI50 (HT29 colon): 0.114 µM
- TGI (HT29 colon): 0.293 µM
- GI50 (SNB-75 CNS): 0.0332 µM
- GI50 (MCF7 breast): 0.147 µM
- GI50 (K-562 leukemia): 0.633 µM
- TGI (K-562 leukemia): > 100 µM
- GI50 (HCT-15 colon): 0.363 µM
- TGI (HCT-15 colon): > 57.9 µM
- GI50 (UO-31 renal): 0.184 µM
- TGI (UO-31 renal): > 100 µM
- GI50 (NCI/ADR-RES ovarian): 0.0629 µM
- TGI (NCI/ADR-RES ovarian): > 100 µM
- GI50 (HOP-62 NSCLC): 0.458 µM
- TGI (HOP-62 NSCLC): > 63.4 µM
- GI50 (SF-268 CNS): 0.0564 µM
- GI50 (SK-OV-3 ovarian): 0.295 µM
- TGI (SK-OV-3 ovarian): > 67.6 µM
- GI50 (U251 CNS): 0.498 µM
- TGI (U251 CNS): > 100 µM
- GI50 (OVCAR-4 ovarian): 0.219 µM
- TGI (OVCAR-4 ovarian): > 100 µM
- TGI (SNB-19 CNS): > 100 µM
- GI50 (RXF 393 renal): 0.0542 µM
- TGI (RXF 393 renal): > 100 µM
- GI50 (IGROV1 ovarian): 0.337 µM
- GI50 (MALME-3M melanoma): 0.174 µM
- TGI (MALME-3M melanoma): 0.42 µM
- GI50 (RPMI-8226 leukemia): 0.387 µM
- GI50 (NCI-H460 lung): 0.351 µM
- TGI (NCI-H460 lung): > 100 µM
- GI50 (SF-295 CNS): 0.524 µM
- TGI (SF-295 CNS): > 100 µM
- GI50 (SN12C renal): 0.256 µM
- GI50 (CCRF-CEM leukemia): 0.388 µM
- TGI (CCRF-CEM leukemia): > 100 µM
- GI50 (TK-10 renal): 0.468 µM
- TGI (TK-10 renal): > 100 µM
- GI50 (A549 NSCLC): 0.178 µM
- TGI (A549 NSCLC): > 100 µM
- GI50 (ACHN renal): 0.428 µM
- GI50 (MDA-MB-435): 0.193 µM
- TGI (MDA-MB-435): > 100 µM
- GI50 (PC-3 prostate): 0.26 µM
- TGI (PC-3 prostate): > 23.2 µM
- GI50 (T-47D breast): 0.338 µM
- GI50 (KM12 colon): 0.0351 µM
- TGI (KM12 colon): 0.154 µM
- GI50 (EKVX NSCLC): 0.384 µM
- GI50 (OVCAR-5 ovarian): 0.367 µM
- TGI (OVCAR-5 ovarian): > 100 µM
- GI50 (NCI-H522 lung): 0.0677 µM
- TGI (NCI-H522 lung): 0.191 µM
- GI50 (MDA-MB-231 breast): 0.114 µM
- TGI (MDA-MB-231 breast): 0.458 µM
- GI50 (NCI-H23 lung): 0.229 µM
- TGI (NCI-H23 lung): > 38.8 µM
- GI50 (HL-60(TB) leukemia): 0.303 µM
- TGI (HL-60(TB) leukemia): > 100 µM
- GI50 (A498 renal): 0.116 µM
- GI50 (NCI-H226 lung): 0.0562 µM
- TGI (NCI-H226 lung): > 100 µM
- GI50 (HCC-2998 colon): 0.386 µM
- TGI (HCC-2998 colon): > 100 µM
- GI50 (UACC-257 melanoma): 0.0904 µM
- TGI (UACC-257 melanoma): > 100 µM
- GI50 (COLO 205 colon): 0.107 µM
- TGI (COLO 205 colon): 0.876 µM
- GI50 (MDA-N): 0.228 µM
- TGI (MDA-N): > 100 µM
- GI50 (DU-145 prostate): 0.555 µM
- TGI (DU-145 prostate): > 100 µM
- GI50 (SF-539 CNS): 0.151 µM
- TGI (SF-539 CNS): > 100 µM
- GI50 (LOX IMVI melanoma): 0.0697 µM
- TGI (LOX IMVI melanoma): > 100 µM
- GI50 (OVCAR-3 ovarian): 0.115 µM
- GI50 (SK-MEL-5 melanoma): 0.0374 µM
- TGI (SK-MEL-5 melanoma): 0.131 µM
- GI50 (HS 578T breast): 0.0646 µM
- TGI (HS 578T breast): > 40.8 µM
- GI50 (SK-MEL-2 melanoma): 0.223 µM
- GI50 (HCT-116 colon): 0.279 µM
- TGI (HCT-116 colon): 1.19 µM
- GI50 (786-0 renal): 0.0416 µM
- GI50 (M14 melanoma): 0.111 µM
- TGI (M14 melanoma): > 59.3 µM
- GI50 (SK-MEL-28 melanoma): 0.586 µM
- TGI (SK-MEL-28 melanoma): > 100 µM
- GI50 (CAKI-1 renal): 0.389 µM
- GI50 (UACC-62 melanoma): 0.0667 µM
- TGI (UACC-62 melanoma): > 100 µM

Structure (SMILES): CCCCCCCCCCCCCCCCP(=O)(O)OP(=O)(O)OCC1OC(n2cnc3c(N)ncnc32)C(O)C1O (configuration not stated)
- TGI (BT-549 breast): > 100 µM
- TGI (HOP-92 NSCLC): 42 µM
- TGI (MOLT-4 leukemia): 76.4 µM
- TGI (OVCAR-8 ovarian): 43.9 µM
- TGI (SW-620 colon): 88.1 µM
- TGI (HT29 colon): 43.8 µM
- TGI (SNB-75 CNS): 45.3 µM
- TGI (MCF7 breast): 45.7 µM
- TGI (K-562 leukemia): > 100 µM
- TGI (HCT-15 colon): 59.4 µM
- TGI (UO-31 renal): 30 µM
- TGI (NCI/ADR-RES ovarian): 98.6 µM
- TGI (HOP-62 NSCLC): 37.3 µM
- TGI (SF-268 CNS): 95.2 µM
- TGI (SK-OV-3 ovarian): > 100 µM
- TGI (U251 CNS): 41.1 µM
- TGI (OVCAR-4 ovarian): > 100 µM
- TGI (SNB-19 CNS): 42 µM
- TGI (IGROV1 ovarian): 35.9 µM
- TGI (MALME-3M melanoma): 44.8 µM
- TGI (NCI-H460 lung): 58.4 µM
- TGI (SN12C renal): 59.5 µM
- TGI (CCRF-CEM leukemia): 97.4 µM
- TGI (TK-10 renal): 34.3 µM
- TGI (A549 NSCLC): > 100 µM
- TGI (ACHN renal): 62.1 µM
- TGI (MDA-MB-435): 96.7 µM
- TGI (PC-3 prostate): 52.9 µM
- TGI (T-47D breast): > 100 µM
- TGI (KM12 colon): 53.8 µM
- TGI (EKVX NSCLC): > 100 µM
- TGI (OVCAR-5 ovarian): 29.2 µM
- TGI (NCI-H522 lung): 41.7 µM
- TGI (MDA-MB-231 breast): > 100 µM
- TGI (NCI-H23 lung): 68.2 µM
- TGI (HL-60(TB) leukemia): > 100 µM
- TGI (NCI-H226 lung): 39.6 µM
- TGI (HCC-2998 colon): 44.8 µM
- TGI (UACC-257 melanoma): 60 µM
- TGI (COLO 205 colon): > 100 µM
- TGI (MDA-N): > 100 µM
- TGI (DU-145 prostate): > 100 µM
- TGI (SF-539 CNS): 43.5 µM
- TGI (LOX IMVI melanoma): 70.5 µM
- TGI (OVCAR-3 ovarian): 88.1 µM
- TGI (SK-MEL-5 melanoma): > 100 µM
- TGI (HS 578T breast): 89.1 µM
- TGI (SK-MEL-2 melanoma): > 100 µM
- TGI (SR leukemia): > 100 µM
- TGI (HCT-116 colon): 47.3 µM
- TGI (786-0 renal): 53.2 µM
- TGI (M14 melanoma): 56.7 µM
- TGI (SK-MEL-28 melanoma): > 100 µM
- TGI (CAKI-1 renal): 64.4 µM
- TGI (UACC-62 melanoma): 69.2 µM

— PubChem BioAssay (NCI)
